In this experiment the test system is human whole blood. Description: human whole blood assay verifying inhibitory activity of the inhibitor samples. Type of experiment: cell-based.

`CC(c1cc2ccccc2s1)N(O)C(N)=O` (stereo not shown) [Zileuton]: the “inhibitory activity in a human whole blood assay” value is given as “verified”.

Values taken from US20090155784A1, “ASSESSMENT OF ASTHMA AND ALLERGEN-DEPENDENT GENE EXPRESSION” (Wyeth, priority 2007, published 2009).
